For data set [1] the following is noted: reported in literature (refs 15-17); cited from earlier work.
The test system of data set [2] is elderly patients with systolic hypertension. The data set is described as follows: Group I: double-blind randomised crossover study of single doses in patients with systolic hypertension, no baseline angiotensin II inhibition. The conditions noted are these: for Sitting brachial blood pressure systolic: at 11.00 h after single dose at 08.00 h (ISMN 60 mg, captopril 25 mg, eprosartan 600 mg), placebo 173 ± 3; for Sitting brachial blood pressure systolic / Heart rate (sitting) / Sitting brachial blood pressure diastolic / Standing brachial blood pressure diastolic / Standing brachial blood pressure systolic / decrease in P1 (aortic first peak pressure) at nadir / decrease in P2 (augmentation pressure) at nadir: mean ± SEM; for Heart rate (sitting) / Sitting brachial blood pressure diastolic / Standing brachial blood pressure diastolic / Standing brachial blood pressure systolic: at 11.00 h after single dose at 08.00 h; for Heart rate (sitting): placebo 60 ± 4; for Sitting brachial blood pressure diastolic: placebo 82 ± 3; for Standing brachial blood pressure diastolic: placebo 83 ± 3; for Standing brachial blood pressure systolic: placebo 166 ± 4; for effect on augmentation index: post-dose observation period; for effect on aortic systolic blood pressure: ISMN and captopril P<0.0001, eprosartan P<0.001; for aortic systolic pressure lower than control at nadir of hypotensive effect: nadir ISMN 10.00 h, captopril 11.00 h, eprosartan 09.00 h. The source says:
The subjects were sixteen patients with long-standing hypertension, referred from their family physicians after having undergone treatment trials using a variety of conventional antihypertensive agents without reaching satisfactory control of systolic blood pressure. […] Plasma creatinine concentration was <0.15 mmol/l in every case. There was a history of myocardial infarction Or coronary bypass grafting in eight subjects, of peripheral vascular disease in four, and of diabetes mellitus (not requiring medication) in one. All patients were fully ambulant without symptomatic cardiac disease or known vascular aneurysm. Their current regimen of antihypertensive therapy had been stable for three weeks or more, and was continued unchanged through the present study. None had received nitrate therapy previously. Two different study protocols were used. One patient participated in both protocols with a 15-month break in between. Entry to either study required that systolic blood pressure should be between 150 and 200 mmHg, and that diastolic blood pressure should be equal to or less than 100 mmHg.
Group I protocol. […] Their baseline anti-hypertensive therapy, which excluded ACE inhibitors and angiotensin II receptor antagonists, consisted of one to three of the following drugs in conventional dosage:. diuretics (7 cases), beta blockers (7), prazosin (1), amlodipine (4), nifedipine controlled-release formulation (2). […] The pulse wave and pulse rate were measured at the same intervals. Between observations, the subjects engaged in sedentary recreational activities in a temperature-controlled environment.
Brachial blood pressure was recorded by sphygmomanometer, and pulse wave tonometry was performed at the radial artery with the patient seated. The aortic pulse wave form was determined and the aortic first peak pressure (P1) and augmentation pressure (P2) were quantified by computer software (SphygmoCor, AtCor Medical, Sydney), as previously reported.^13 Augmentation index (P2 expressed as % of pulse pressure) described the magnitude of wave reflection. Statistical analysis was by repeated measures analysis of variance using PRISM (GraphPad Software Inc., San Diego, Calif.) and post-hoc paired t tests. Values given are mean±SEM.

In data set [3] the test system is elderly patients with systolic hypertension on chronic angiotensin II inhibitors. The data set is described as follows: Group II: double-blind randomised crossover study of single-dose ISMN in patients with AII inhibition at baseline. It is filed as in vivo, human. The conditions noted are these: for decrease in sitting diastolic pressure: not significant. The method, then: None had received nitrate therapy previously. Two different study protocols were used. […] Group II protocol. […] The two study days were one to two weeks apart. Observations were made from 0800 h to 1600 h as in Group I. These subjects differed from Group I in that they were receiving treatment at study entry with ACE inhibitor or angiotensin II receptor antagonist drugs, as follows: monopril 10 mg/d (1 case), captopril 50 mg/d (1), ramipril 10 mg/day (1), ramipril 10 mg/d and candesartan 16 mg/d (1), irbesartan 300 mg/d (1), telmisartan 40 mg/d (1). Their other baseline antihypertensive drug therapy consisted of 1-2 of the following agents in conventional dosage: hydrochlorthiazide (1), beta blockers (2), amlodipine (1), diltiazem controlled-delivery formulation (2). […] Values given are mean±SEM.

Regarding `CCCCc1ncc(/C=C(\Cc2cccs2)C(=O)O)n1Cc1ccc(C(=O)O)cc1` [Eprosartan, eprosartan], the “time to reach peak plasma concentration” value in data set [1] was 1 to 2 h. Moreover, in data set [2] (Group I), the “Sitting brachial blood pressure systolic” value was determined as 158 ± 5 mm Hg, the “Heart rate (sitting)” value was determined as 59 ± 4 bpm, the “Sitting brachial blood pressure diastolic” value is 78 ± 3 mm Hg and the “Standing brachial blood pressure diastolic” value is recorded as 83 ± 4 mm Hg. For the same compound, in data set [2] (Group I), the “Standing brachial blood pressure systolic” value is recorded as 152 ± 4 mm Hg and the “effect on augmentation index” value is on record as “Neither captopril nor eprosartan altered”. Further, in data set [2] (Group I, single dose), the “effect on heart rate” value was “not changed”, the “effect on aortic systolic blood pressure” value is recorded as “significantly decreased”, the “decrease in P1 (aortic first peak pressure) at nadir” value (shortened to “decrease in P1”) worked out at 4±2 mmHg and the “decrease in P2 (augmentation pressure) at nadir” value (“decrease in P2” below) is 6±3 mm Hg. The “aortic systolic pressure lower than control at nadir of hypotensive effect” value in data set [2] (Group I, single dose) is recorded as 15 mm Hg.
Take `O=[N+]([O-])O[C@@H]1CO[C@H]2[C@@H]1OC[C@@H]2O` [ISMN, isosorbide mononitrate]: the “time to reach peak plasma concentration” value in data set [1] was 3 to 4 h. The “average post-dose decrease in augmentation index” value in data set [3] (Group II (baseline AII inhibition), ISMN 60 mg single dose, control 38.5±1.1%) is listed as 16±1%. Besides, the “average post-dose decrease in aortic systolic pressure” value in data set [3] (Group II (baseline AII inhibition), ISMN 60 mg single dose, control 154±2) was determined as 34±3 mmHg. Also, the “effect on sitting and standing brachial systolic blood pressure” value in data set [3] (Group II, P<0.0001) is on record as “decreased”. Moreover, the “decrease in sitting brachial systolic blood pressure” value in data set [3] (Group II, at 12.00 h, from control value 176, P<0.001) came out at 37 mm Hg. Moreover, in data set [3] (Group II, at 12.00 h), the “decrease in sitting diastolic pressure” value came to 13 mm Hg. In addition, in data set [3] (Group II, at 16.00 h, from control value 173, P<0.001), the “decrease in sitting brachial systolic blood pressure” value is reported as 34 mm Hg. The “decrease in sitting diastolic pressure” value in data set [3] (Group II, at 16.00 h) came to 10 mm Hg. Further, the “Heart rate, overall mean value” in data set [3] (Group II, increased from mean value of 60, P<0.001) was determined as 64 bpm. The “peak decrease in augmentation index” value in data set [2] (FIGS. 1 and 2 (Groups I and II)) is on record as “approximately 50 % of control”. Moreover, the “average post-dose decrease in augmentation index” value in data set [2] (Group I, ISMN 60 mg single dose, control 37.9±1.0%) turned out to be 15±1%. In data set [2] (Group I, ISMN 60 mg single dose, control 160±2), the “average post-dose decrease in aortic systolic pressure” value turned out to be 29±2 mmHg. In addition, in data set [2] (Group I), the “Sitting brachial blood pressure systolic” value is given as 145 ± 5 mm Hg, the “Heart rate (sitting)” value is recorded as 60 ± 5 bpm, the “Sitting brachial blood pressure diastolic” value was found to be 77 ± 3 mm Hg and the “Standing brachial blood pressure diastolic” value worked out at 77 ± 3 mm Hg. In data set [2] (Group I), the “Standing brachial blood pressure systolic” value turned out to be 139 ± 4 mm Hg and the “effect on augmentation index” value is listed as “significantly reduced”. Also, in data set [2] (Group I, single dose), the “effect on aortic systolic blood pressure” value was “significantly decreased”, the “decrease in P1” value came to 11±2 mmHg, the “decrease in P2” value stood at 19±3 mm Hg and the “aortic systolic pressure lower than control at nadir of hypotensive effect” value is reported as 34 mm Hg. Further, the “Heart rate average post-dose increase” value in data set [2] (Group I, single dose, P<0.001) came out at 3±1 b.p.m. Moreover, the “duration of depressor effect” value in data set [2] (extended-release preparation, observation to 16.00 h) is reported as “sustained through the remainder of the observation period”.
For the compound `C[C@H](CS)C(=O)N1CCC[C@H]1C(=O)O` [Captopril, captopril], the “time to reach peak plasma concentration” value in data set [1] is given as 1 h. Also, in data set [2] (Group I), the “Sitting brachial blood pressure systolic” value worked out at 148 ± 5 mm Hg, the “Heart rate (sitting)” value came to 59 ± 4 bpm, the “Sitting brachial blood pressure diastolic” value turned out to be 78 ± 2 mm Hg and the “Standing brachial blood pressure diastolic” value was determined as 78 ± 2 mm Hg. Also, in data set [2] (Group I), the “Standing brachial blood pressure systolic” value was 143 ± 5 mm Hg and the “effect on augmentation index” value is given as “Neither captopril nor eprosartan altered”. Also, in data set [2] (Group I, single dose), the “effect on heart rate” value was “not changed”, the “effect on aortic systolic blood pressure” value is on record as “significantly decreased”, the “decrease in P1” value is 9±2 mmHg and the “decrease in P2” value was determined as 9±3 mm Hg. Further, the “aortic systolic pressure lower than control at nadir of hypotensive effect” value in data set [2] (Group I, single dose) was determined as 23 mm Hg.

The values are drawn from US20070009614A1, “Composition and method for treating hypertension” (Northern Sydney Area Health Service, priority 2002, published 2007).
